From patent US8278359B2, “Compositions containing amines and use thereof to treat acne or reduce the appearance of oil or pores on the skin” (Johnson & Johnson Consumer Companies, Inc., priority 2005, dated 2012)

Tests used:
IL-1A = experiment: UV-induced IL-1A release on reconstituted epidermis (EPI 200 HCF epidermal equivalents); format: cell-based, human; conditions: 0.5% w/v topical
Description: The effect of diamines was evaluated for topical anti-inflammatory activity on human epidermal equivalents. Epidermal equivalents (EPI 200 HCF), multilayer and differentiated epidermis consisting of normal, human epidermal keratinocytes, were purchased from MatTek (Ashland, Mass.). Upon receipt, epidermal equivalents were incubated for 24 hours at 37° C. in maintenance medium without hydrocortisone. Equivalents were topically treated (2 mg/cm^2) with compounds in 70% ethanol/30% propylene glycol vehicle at the indicated concentration 2 hours before exposure to solar ultraviolet light (1000 W-Oriel solar simulator equipped with a 1-mm Schott WG 320 filter; UV dose applied: 70 kJ/m^2 as measured at 360 nm). Equivalents were incubated for 24 hours at 37° C. with maintenance medium then supernatants were analyzed for IL-1A cytokine release using commercially available kits (Upstate Biotechnology, Charlottesville, Va.).

Human keratinocytes = experiment: Electric Cell-substrate Impedance Sensing (ECIS) capacitance, keratinocyte contraction; format: cell-based; conditions: capacitance integrated over 5 hrs, 40,000 Hz, pH 7.2-7.3
Description: Electrical changes due to the presence of a cell layer can be used to calculate cell morphological parameters including the barrier function of the cell layer (the spacing between the ventral side of the cell and the substratum) and the cell membrane capacitance (Giaever and Keese, Proceedings of National Academy of Sciences 88, 7896, 1991).
Current flowing between a reference electrode, onto which cells or cell cultures may be attached, and a larger counter electrode using normal culture medium as the electrolyte can be used to detect changes in cell morphological parameters. In the absence of cells on the electrode, the current flows unrestrained from the surface of the electrodes. In the presence of cells attached and spread upon the electrode, the current must now flow in the spaces under and between the cells, as the cell membrane act as insulators.
The electrical changes of living, viable cells can be sampled rapidly, in real time, over an extended period of time, and the measurements are the measurement is non-invasive. An example of this technology is the Electric Cell-substrate Impedance Sensing System (ECIS) available from Applied Biophysics (Troy, N.Y.). […]
Human keratinocytes and Epilife culture media (Cascade Biologics, Portland, Oreg.) were cultured at 37° C. in a humidified atmospheres of 5% CO2/95% air. […] Capacitance changes (in nanofarads, nF) of keratinocytes were measured using a Electric Cell-substrate Impedance Sensing System (ECIS) Model 1600R (Applied Biophysics, Troy, N.Y.) using the method of Wegener and co-workers (Wegener J, Keese C R, Giaever I, Exp Cell Res. 259:158-166, 2000) at a frequency of 40,000 Hz. Capacitance readings are inversely related to the contact area of a cell onto the ECIS electrode array, the greater the cell area contacting the electrode the smaller the capacitance readings (Wegener J, Keese C R, Giaever I, Exp Cell Res. 259:158-166, 2000). Conversely as a cell contracts or shrinks, the contact area of the cell onto the ECIS electrode array decreases, resulting in an increase in the capacitance readings. […]

## CC(O)CN(CCN(CC(C)O)CC(C)O)CC(C)O (centres unmarked) [THPED, N,N,N′,N′-Tetrakis(2-hydroxypropyl)ethylenediamine]
IL-1A; 2 hours before UV (70 kJ/m^2), 24 hours after
  Mean +/− Std Dev of IL-1A Release: 357.3 ± 92.1 ng/mL
IL-1A; Homo sapiens, 2 hours before UV, vs UV, Vehicle, read-out: Percent Inhibition of Skin Inflammation
  inhibition at 0.5 % strength: 0%
Human keratinocytes; 0.01% V/V
  Electrical Capacitance Contraction of Human Keratinocytes (AUC, Mean ± Std Dev): 29.2 ± 3.2
Human keratinocytes; 0.05% V/V
  Electrical Capacitance Contraction of Human Keratinocytes (AUC, Mean ± Std Dev): 35.1 ± 5.3
Human keratinocytes; 0.1% V/V
  Electrical Capacitance Contraction of Human Keratinocytes (AUC, Mean ± Std Dev): 44.5 ± 9.1
